Read-outs that look alike come from different tables or passages of the source.
What was measured:
Yersinia entomophaga = experiment: CFU counts after exposure of Yersinia entomophaga to insecticides; type: cell-based; conditions: 1 hour contact
Description: To test combinations of Yersinia entomophaga and pesticides for their ability to produce a pesticidal effect, or an effect on plant growth or yield, we first put various insecticides in contact with Yersinia to identify insecticides that had minimal toxicity to Yersinia entomophaga. The logic was that, if Yersinia entomophaga is to function well in combination with a chemical insecticide, the chemical insecticide would ideally have low or no effect on the ability of Yersinia entomophaga to survive, grow and/or to function.
To perform this study, we selected amounts of various insecticides based on the percent of the specific insecticide in the insecticide composition obtained from a manufacturer. We also considered the application rate of the particular insecticide, as recommended by the manufacturer. […] Generally, the 1× amount was considered possibly the lowest amount of insecticide that may be considered as an effective amount for use in the combinations disclosed herein. For each insecticide, we also used a higher amount of insecticide (generally a 5× or 10× amount).
The 1× and 5×/10× amounts of each insecticide were added to tubes along with 1 ml of ethyl acetate. The tubes were mixed until the insecticides dissolved. The tubes were left open in a fume hood overnight to allow the ethyl acetate to evaporate. The insecticide remained in the tubes, as a solid coat on the interior surface of the tubes.
A growing culture of Yersinia entomophaga, grown in LB medium, was diluted and 1 ml of the diluted culture was added to each tube containing the dried insecticide. The tubes were mixed and then left on the bench top for 1 hour. Then, 100 μl from each tube was plated onto LB plates in triplicate in CFU assays. Plates were incubated at 25° C. for 48 hours and colonies were counted.

cabbage looper [1] = tested on: cabbage looper
diamondback moth [2] = experiment: whole plant or invertebrate; conditions: for LT50 Chem.: Diamondback moth
Description: (§1) These were set to dry for 1 hr.
as §1
These were set to dry for 1 hr. Cabbage disks were then dipped in either 1% Luria broth (LB) media solution (controls and thiacloprid alone treatments) or in 1% cell free filtrate from a culture Y. entomophaga isolate O24G3R (Y. entomophaga alone or in combination with thiacloprid treatments).

cabbage looper [3] = conditions: for LT50 Chem. / % Mort. Chem.: Cabbage Looper
Description: (§2) To produce cell free filtrates, cultures of Yersinia entomophaga grown in LB medium were centrifuged at 11,448 (g) for 10 minutes. The supernatant was decanted from the centrifuged pellet and filtered through a 0.22 μm filter. Assays were performed to determine concentrations of Yen-TC (toxin complex) using ELISA, and chitinase by measuring chitinase activity on specific substrates. […] This was done to estimate relative potency of the cell free filtrates. Insects were first pre-screened with a range of dilutions of cell free filtrates to select a concentration that provided moderate activity. […] Based on these initial screens, undiluted cell free filtrate was used for cabbage looper, fall armyworm, black cutworm, and Colorado potato beetle. […] In each of the Examples below, this is expressed as 1%.
Cabbage leaf disks were dipped in either acetone (controls and Y. entomophaga alone treatments) or novaluron (Sigma 32419) at 1.0 mg/L in acetone. These were set to dry for 1 hr. […] After the cabbage disks had dried for 1 hr, a single 3rd instar cabbage looper was added to each individual cabbage disk. A total of 20 insects were evaluate for each treatment. Insects were observed daily and scored as live or dead.

black cutworm [4] = experiment: Leaf disk mortality assay, Y. entomophaga cells with chemical insecticides
fall armyworm = experiment: as above; conditions: for % Mort. Chem. / LT50 Chem.: fall armyworm
black cutworm [5] = conditions: indoxacarb 0.53 mg/L
Description: as §2
Cabbage leaf disks were dipped in either acetone (controls and Y. entomophaga alone treatments) or in indoxacarb (Sigma 33969) at 0.53 mg/L in acetone. These were set to dry for 1 hr. […] After the cabbage disks had dried for 1 hr, a single 2nd instar black cutworm was added to each individual cabbage disk. A total of 20 insects were evaluate for each treatment. Insects were observed daily and scored as live or dead.
Cabbage leaf disks were dipped in either acetone (controls and Y. entomophaga alone treatments) or in flubendiamide (Sigma 32801) at 0.59 mg/L in acetone. These were set to dry for 1 hr. […] After the cabbage disks had dried for 1 hr, a single 2nd instar black cutworm was added to each individual cabbage disk. A total of 20 insects were evaluate for each treatment. Insects were observed daily and scored as live or dead.

cabbage looper [6] = experiment: whole plant or invertebrate; conditions: Trichoplusia ni, foliar
diamondback moth [7] = experiment: Leaf disk mortality assay, Y. entomophaga cells with chemical insecticides
[8] = 3rd instar, indoxacarb 0.53 mg/L, isolate O43NEW 1×10^4 cfu/mL
[9] = 3rd instar, indoxacarb 0.53 mg/L, isolate O43NEW 1×10^6 cfu/mL
[10] = 3rd instar, emamectin benzoate 0.67 mg/L, isolate O23ZMJ 1×10^5 cfu/mL
[11] = 3rd instar, emamectin benzoate 0.002 mg/L, isolate O43NEW 1×10^3 cfu/mL

CNC(=O)Oc1cccc2ccccc12 [Carbaryl]
Average CFU (Yersinia entomophaga; 1.0 mg insecticide): 456 CFU | Average CFU (Yersinia entomophaga; 9.6 mg insecticide): 459 CFU | % Mortality (4DAT) (tobacco budworm; in vivo): 50% | % Mortality (5DAT) (tobacco budworm; in vivo): 65% | LT50 (95% confidence intervals) in days (tobacco budworm; in vivo): 4.06 (3.65-4.52) days | % Mort. Chem. (tobacco budworm; tobacco budworm, Carbaryl 100 mg/L, 4 DAT): 50% | LT50 Chem. (tobacco budworm; tobacco budworm, Carbaryl alone 100 mg/L): 4.06 days | % Mort. Chem. (cabbage looper [1]; cabbage looper, Carbaryl 100 mg/L, 2 DAT): 21% | LT50 Chem. (cabbage looper [1]; cabbage looper, Carbaryl alone 100 mg/L): 3.60 days | % Mortality (1DAT) (cabbage looper [1]; in vivo): 4% | % Mortality (2DAT) (cabbage looper [1]; in vivo): 21% | LT50 (95% confidence intervals) in days (cabbage looper [1]; in vivo): 3.60 (3.12-4.17) days

COC(=O)N(C(=O)N1CO[C@@]2(C(=O)OC)Cc3cc(Cl)ccc3C2=N1)c1ccc(OC(F)(F)F)cc1 [Indoxacarb]
Average CFU (Yersinia entomophaga; 0.2 mg insecticide): 452 CFU | Average CFU (Yersinia entomophaga; 1.1 mg insecticide): 477 CFU | LT50 (95% confidence intervals) (diamondback moth [2]; 2nd instar diamondback moth, indoxacarb […], O43NEW filtrate 1%, alone or combined): 3.47 days | LT50 Chem. (diamondback moth [2]; indoxacarb […]): 3.47 days | LT50 Chem. (cabbage looper [3]; indoxacarb 0.53 mg/L): 11.98 days | % Mort. Chem. (cabbage looper [3]; indoxacarb 0.53 mg/L, 9 DAT): 25% | % Mortality (2DAT) (cabbage looper [3]; cabbage looper, indoxacarb 0.53 mg/L, undiluted O43NEW filtrate, 2 DAT, Abbott's corrected): 0% | % Mortality (6DAT) (cabbage looper [3]; cabbage looper, indoxacarb 0.53 mg/L, undiluted O43NEW filtrate, 6 DAT, Abbott's corrected): 15% | % Mortality (7DAT) (cabbage looper [3]; cabbage looper, indoxacarb 0.53 mg/L, undiluted O43NEW filtrate, 7 DAT, Abbott's corrected): 15% | % Mortality (8DAT) (cabbage looper [3]; cabbage looper, indoxacarb 0.53 mg/L, undiluted O43NEW filtrate, 8 DAT, Abbott's corrected): 25% | % Mortality (9DAT) (cabbage looper [3]; cabbage looper, indoxacarb 0.53 mg/L, undiluted O43NEW filtrate, 9 DAT, Abbott's corrected): 25% | % Mortality (12DAT) (cabbage looper [3]; cabbage looper, indoxacarb 0.53 mg/L, undiluted O43NEW filtrate, Abbott's corrected): 61% | % Mortality (14DAT) (cabbage looper [3]; cabbage looper, indoxacarb 0.53 mg/L, undiluted O43NEW filtrate, 14 DAT, Abbott's corrected): 59% | % Mortality (3DAT) (black cutworm [4]; [8]): 11% | % Mortality (4DAT) (black cutworm [4]; [8]): 6% | % Mortality (5DAT) (black cutworm [4]; [8]): 0% | % Mortality (6DAT) (black cutworm [4]; [8]): 6% | LT50 (95% confidence intervals) in days (black cutworm [4]; [8]): 7.64 (7.01-8.32) days | % Mort. Chem. (black cutworm [4]; black cutworm, Indoxacarb 0.53 mg/L, 5 DAT): 0% | LT50 Chem. (black cutworm [4]; black cutworm, Indoxacarb alone 0.53 mg/L): 7.64 days | % Mortality (5DAT) (fall armyworm; [9]): 5% | % Mortality (6DAT) (fall armyworm; [9]): 10% | LT50 (95% confidence intervals) (fall armyworm; [9]): 9.65 days | LT50 (95% confidence intervals) in days (fall armyworm; 3rd instar, indoxacarb […], isolate O23ZMJ 1×10^5 cfu/mL): 5.14 (4.67-5.66) days | % Mort. Chem. (fall armyworm; Indoxacarb 0.53 mg/L, 6 DAT): 10% | LT50 Chem. (fall armyworm; Indoxacarb alone 0.53 mg/L): 9.65 days | LT50 Chem. (fall armyworm; Indoxacarb alone […]): 5.14 days | LT50 (95% confidence intervals) in days (black cutworm [5]; 2nd instar black cutworm, O43NEW undiluted filtrate, alone or combined): 10.99 (9.75-12.42) days | % Mortality (2DAT) (black cutworm [5]; 2nd instar black cutworm, O43NEW undiluted filtrate, alone or combined, 2 DAT, Abbott's corrected): 0% | % Mortality (6DAT) (black cutworm [5]; 2nd instar black cutworm, O43NEW undiluted filtrate, alone or combined, 6 DAT, Abbott's corrected): 0% | % Mortality (8DAT) (black cutworm [5]; 2nd instar black cutworm, O43NEW undiluted filtrate, alone or combined, 8 DAT, Abbott's corrected): 11% | % Mortality (9DAT) (black cutworm [5]; 2nd instar black cutworm, O43NEW undiluted filtrate, alone or combined, 9 DAT, Abbott's corrected): 21% | LT50 Chem. (black cutworm [5]; Black cutworm): 10.99 days | % Mort. Chem. (black cutworm [5]; Black cutworm, 9 DAT): 21%

CNC(=O)ON=C(C)SC [Methomyl]
Average CFU (Yersinia entomophaga; 0.3 mg insecticide): 192 CFU | Average CFU (Yersinia entomophaga; 3.4 mg insecticide): 0 CFU | mortality at 30 µg/mL (cabbage looper [6]; 24 h, read-out: % Mortality (1DAT)): 4% | mortality at 30 µg/mL (cabbage looper [6]; 48 h, read-out: % Mortality (2DAT)): 12% | LT50 Chem. (cabbage looper [1]; cabbage looper, Methomyl alone 30 mg/L): 5.84 days | % Mort. Chem. (cabbage looper [1]; in vivo): 12% | LT50 (95% confidence intervals) in days (cabbage looper [1]; in vivo): 5.84 (4.99-6.88) days

O=C(NC(=O)c1c(F)cccc1F)Nc1ccc(OC(F)(F)C(F)OC(F)(F)F)c(Cl)c1 (centres unmarked) [Novaluron]
Average CFU (Yersinia entomophaga; 0.1 mg insecticide): 528 CFU | Average CFU (Yersinia entomophaga; 1.0 mg insecticide): 452 CFU | mortality at 1 µg/mL (cabbage looper [6]; 120 h, read-out: % Mortality (5DAT)): 11% | mortality at 1 µg/mL (cabbage looper [6]; 144 h, read-out: % Mortality (6DAT)): 21% | LT50 Chem. (cabbage looper [3]; novaluron 1 mg/L): 7.31 days | % Mort. Chem. (cabbage looper [3]; novaluron 1 mg/L, 6 DAT): 0% | LT50 (95% confidence intervals) in days (black cutworm [4]; 3rd instar, novaluron […], isolate O43NEW 1×10^4 cfu/mL): 9.40 (8.58-10.32) days | LT50 Chem. (black cutworm [4]; black cutworm, Novaluron alone […]): 9.40 days | % Mort. Chem. (cabbage looper [1]; cabbage looper, Novaluron 1 mg/L, 5 DAT): 11% | LT50 Chem. (cabbage looper [1]; cabbage looper, Novaluron alone 1 mg/L): 7.55 days | LT50 (95% confidence intervals) in days (cabbage looper [1]; in vivo): 7.55 (7.01-8.13) days

Emamectin benzoate
Average CFU (Yersinia entomophaga; 1.5 mg insecticide): 489 CFU | Average CFU (Yersinia entomophaga; 15 mg insecticide): 459 CFU | LT50 (95% confidence intervals) in days (diamondback moth [2]; 3rd instar diamondback moth, emamectin benzoate 0.002 mg/L, O43NEW filtrate 1%, alone or combined): 6.21 (5.38-7.14) days | LT50 Chem. (diamondback moth [2]; emamectin benzoate 0.002 mg/L): 6.21 days | % Mortality (5DAT) (cabbage looper [3]; 3rd instar cabbage looper, emamectin benzoate 0.02 mg/L, O43NEW undiluted filtrate, alone or combined, 5 DAT, Abbott's corrected): 5% | % Mortality (12DAT) (cabbage looper [3]; 3rd instar cabbage looper, emamectin benzoate 0.02 mg/L, O43NEW undiluted filtrate, alone or combined, Abbott's corrected): 94% | LT50 Chem. (cabbage looper [3]; emamectin benzoate 0.02 mg/L): 7.22 days | % Mort. Chem. (cabbage looper [3]; emamectin benzoate 0.02 mg/L, 5 DAT): 94% | % Mortality (4DAT) (fall armyworm; [10]): 20% | LT50 (95% confidence intervals) in days (fall armyworm; [10]): 5.10 (4.65-5.59) days | LT75 (95% confidence intervals) in days (fall armyworm; 3rd instar, emamectin benzoate 2 mg/L, isolate O43NEW 1×10^6 cfu/mL): 6.54 (5.76-7.44) days | % Mort. Chem. (fall armyworm; Emamectin benzoate 0.67 mg/L, 4 DAT): 20% | LT50 Chem. (fall armyworm; Emamectin benzoate alone 0.67 mg/L): 5.10 days | LT50 Chem. (fall armyworm; Emamectin benzoate alone 2 mg/L): 6.54 days | % Mortality (4DAT) (diamondback moth [7]; [11]): 5% | LT50 (95% confidence intervals) in days (diamondback moth [7]; [11]): 6.21 (5.38-7.14) days | % Mort. Chem. (diamondback moth [7]; diamondback moth, Emamectin benzoate 0.002 mg/L, 4 DAT): 5% | LT50 Chem. (diamondback moth [7]; diamondback moth, Emamectin benzoate alone 0.002 mg/L): 6.21 days | % Mort. Chem. (cabbage looper [1]; cabbage looper, Emamectin benzoate 0.02 mg/L, 7 DAT): 13% | % Mortality (7DAT) (cabbage looper [1]; in vivo): 13% | LT50 (95% confidence intervals) in days (cabbage looper [1]; in vivo): 7.61 (7.08-8.19) days | LT50 Chem. (cabbage looper [1]; in vivo): 7.61 days
